Data reported in the supplement of paper PMC13207355.

Key:
Details in all cases: exposure time: 72 h
[1] = tested on: E34 (patient-derived glioblastoma stem cells of proneural subtype); experiment: phenotypic distance (Euclidean, principal components) from DMSO controls (arbitrary units); higher = stronger morphological change
[2] = tested on: E31 (patient-derived glioblastoma stem cells of proneural subtype); experiment: as above
[3] = tested on: E28 (patient-derived glioblastoma stem cells of classical subtype); experiment: as above
[4] = tested on: E57 (patient-derived glioblastoma stem cells of mesenchymal subtype); experiment: as above
[5] = tested on: E21 (patient-derived glioblastoma stem cells of mesenchymal subtype); experiment: as above
[6] = tested on: E13 (patient-derived glioblastoma stem cells of classical subtype); experiment: as above
[7] = tested on: FT3469 (normal neural stem cell line); experiment: as above
[8] = tested on: E34; experiment: surviving fraction (nuclei count normalised to DMSO); higher = more cells surviving (less toxic)
[9] = tested on: E31; experiment: as above
[10] = tested on: E28; experiment: as above
[11] = tested on: E57; experiment: as above
[12] = tested on: E21; experiment: as above
[13] = tested on: E13; experiment: as above
[14] = tested on: FT3469; experiment: as above
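Wherever phenotypic distance (Euclidean, principal components) from DMSO controls is given: cell Painting imaging in 384-well plates, CellProfiler features reduced to at least 20 principal components, Euclidean distance versus same-plate DMSO vehicle wells (0.1% v/v), median over six images per well.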
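Wherever surviving fraction (nuclei count normalised to DMSO) is given: nuclei counted by high-content imaging of Hoechst-stained cells in laminin-coated 384-well plates, relative to 0.1% DMSO vehicle wells, with staurosporine as cell-death control.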

CCn1cc(C(=O)O)c(=O)c2cc(F)c(N3CCNCC3)nc21 [Enoxacin]
Details	phenotypic distance	surviving fraction
[1], 4.1 nM	0.518	–
[1], 12.3 nM	0.658	–
[1], 37 nM	0.667	–
[1], 111.1 nM	0.731	–
[1], 333.3 nM	0.276	–
[1], 1000 nM	0.843	–
[1], 3000 nM	1.19	–
[2], 4.1 nM	0.556	–
[2], 12.3 nM	0.523	–
[2], 37 nM	0.553	–
[2], 111.1 nM	0.528	–
[2], 333.3 nM	0.401	–
[2], 1000 nM	0.654	–
[2], 3000 nM	0.714	–
[3], 4.1 nM	0.627	–
[3], 12.3 nM	0.793	–
[3], 37 nM	0.478	–
[3], 111.1 nM	0.94	–
[3], 333.3 nM	0.292	–
[3], 1000 nM	0.666	–
[3], 3000 nM	0.546	–
[4], 4.1 nM	0.422	–
[4], 12.3 nM	0.677	–
[4], 37 nM	0.541	–
[4], 111.1 nM	0.821	–
[4], 333.3 nM	0.482	–
[4], 1000 nM	0.537	–
[4], 3000 nM	0.807	–
[5], 4.1 nM	0.648	–
[5], 12.3 nM	0.762	–
[5], 37 nM	0.7	–
[5], 111.1 nM	0.554	–
[5], 333.3 nM	0.603	–
[5], 1000 nM	0.823	–
[5], 3000 nM	0.597	–
[6], 4.1 nM	0.646	–
[6], 12.3 nM	0.69	–
[6], 37 nM	0.539	–
[6], 111.1 nM	0.399	–
[6], 333.3 nM	0.457	–
[6], 1000 nM	0.745	–
[6], 3000 nM	0.954	–
[7], 4.1 nM	0.513	–
[7], 12.3 nM	0.577	–
[7], 37 nM	0.677	–
[7], 111.1 nM	0.87	–
[7], 333.3 nM	0.641	–
[7], 1000 nM	0.47	–
[7], 3000 nM	0.868	–
[8], 4.1 nM	–	1.01
[8], 12.3 nM	–	1.07
[8], 37 nM	–	1.09
[8], 111.1 nM	–	0.99
[8], 333.3 nM	–	1.06
[8], 1000 nM	–	1.1
[8], 3000 nM	–	0.885
[9], 4.1 nM	–	0.836
[9], 12.3 nM	–	1
[9], 37 nM	–	1.09
[9], 111.1 nM	–	0.95
[9], 333.3 nM	–	1.02
[9], 1000 nM	–	1.19
[9], 3000 nM	–	0.881
[10], 4.1 nM	–	0.921
[10], 12.3 nM	–	1.01
[10], 37 nM	–	0.969
[10], 111.1 nM	–	1.22
[10], 333.3 nM	–	0.982
[10], 1000 nM	–	0.962
[10], 3000 nM	–	0.83
[11], 4.1 nM	–	1
[11], 12.3 nM	–	1.07
[11], 37 nM	–	1.1
[11], 111.1 nM	–	1.11
[11], 333.3 nM	–	1.06
[11], 1000 nM	–	0.938
[11], 3000 nM	–	0.959
[12], 4.1 nM	–	0.976
[12], 12.3 nM	–	0.98
[12], 37 nM	–	0.929
[12], 111.1 nM	–	0.973
[12], 333.3 nM	–	0.975
[12], 1000 nM	–	0.987
[12], 3000 nM	–	0.968
[13], 4.1 nM	–	0.98
[13], 12.3 nM	–	1.08
[13], 37 nM	–	0.82
[13], 111.1 nM	–	1.01
[13], 333.3 nM	–	0.975
[13], 1000 nM	–	0.96
[13], 3000 nM	–	1.05
[14], 4.1 nM	–	0.928
[14], 12.3 nM	–	0.931
[14], 37 nM	–	0.867
[14], 111.1 nM	–	1.02
[14], 333.3 nM	–	1.06
[14], 1000 nM	–	0.928
[14], 3000 nM	–	0.971
